From paper PMC9268013, “Design, Synthesis, and Biological Evaluation of N14-Amino Acid-Substituted Tetrandrine Derivatives as Potential Antitumor Agents against Human Colorectal Cancer” (Molecules, 2022)

Tests used:
[1] = system: human colon cancer cells (HCT-15); assay: MTT antiproliferative assay, HCT-15; format: cell-based; conditions: Homo sapiens; MTT, 72 h, HCT-15
Protocol: (§1) Human lung cancer cell (A549,), human umbilical vein endothelial cells (HUVECs,), human colon cancer cell lines (HCT-15), human breast cancer cells (MCF-7), human liver cancer cells (HepG2), human pancreatic cancer cells (BxPC-3), and human hepatic cell line (L-02) were obtained from the Sichuan University. A549, HUVECs, and L-02 were cultured in DMEM medium (high glucose, HyClone, GE Healthcare, Sydney, Australia). Human colon cancer cell lines HCT-15, human pancreatic cancer cells […] BxPC-3 were cultured in RPMI-1640. Human breast cancer cells MCF-7 and human liver cancer cells HepG2 were cultured in MEM medium. All the mediums, including 10% fetal bovine serum (FBS, HyClone, GE Healthcare, Sydney, Australia) and 1% ampicillin/streptomycin, were used to culture the above cells at 37 °C in a humidified atmosphere (5% CO2 and 95% air).
(§2) The antiproliferative activity of the title compounds was determined using the MTT (3-(4,5-dimethylthiazol-2-yl)-2,5-diphenyltetrazolium bromide, Sigma-Aldrich, Saint Louis, MO, USA) assay on different cells. Cells lines were seeded into 96-well plates at a density of 2000 to 6000 cells/well. DMSO was used to dissolve the test compounds, and TET was used as a positive control. After 24 h, the test compounds were added at different concentrations (0.625, 1.25, 2.5, 5, 10, and 20 μM) and incubated at 37 °C for 72 h. MTT was added to each well at a final concentration of 0.5 mg/mL and incubated at 37 °C for 4 h. Then, 150 μL of DMSO was added to each well to dissolve the formazan crystals. The absorbance was measured at 570 nm by a microplate reader (ELX800UV, Bio-Tek, Windoski, VT, USA). All measurements were repeated at least three times under the same conditions. Graphpad Prism 8.0 was used to calculate the IC50 values.

[2] = system: human lung cancer cells (A549); assay: MTT antiproliferative assay, A549; format: cell-based; conditions: Homo sapiens, A549, 72 h
Protocol: as §1, §2

[3] = system: human breast cancer cells (MCF-7); assay: MTT antiproliferative assay, MCF-7; format: cell-based; conditions: Homo sapiens, MCF7, 72 h
Protocol: as §1, §2

[4] = system: human pancreatic cancer cells (BxPC-3); assay: MTT antiproliferative assay, BxPC-3; format: cell-based; conditions: Homo sapiens, BXPC-3, 72 h
Protocol: as §1, §2

[5] = system: human umbilical vein endothelial cells (HUVEC); assay: MTT antiproliferative assay, HUVEC; format: cell-based; conditions: 72 h
Protocol: as §1, §2

[6] = system: human normal hepatocyte cells (L-02); assay: MTT toxicity assay, normal hepatocytes L-02; format: cell-based; conditions: 72 h, normal hepatocyte L-02 (toxicity), read-out: Antiproliferative Activity (IC50/μM) L-02
Protocol: as §1, §2

[7] = system: human liver cancer cells (HepG2); assay: MTT antiproliferative assay, HepG2; format: cell-based; conditions: Homo sapiens, HepG2, 72 h
Protocol: as §1, §2

HCT-15 cells = assay: Flow cytometry Annexin V-FITC/PI apoptosis analysis; format: cell-based, human; conditions: HCT-15, TET treatment groups (1.25, 2.5, 5 μM), 48 h
Protocol: HCT-15 cells were cultured in complete medium in six-well plates for 24 h, and […]. 2.5, 5 μM of 16 was added in triplicate for 48 h incubation. The cells were digested with trypsin without EDTA, washed twice with cold PBS, and resuspended in 500 μL binding buffer. The cell suspension was stained successively with 5 μL Annexin V-FITC and 5 μL PI (Keygen Biotech, Nanjing, China), and cultured for 15 min and 5 min in total dark, respectively. Afterwards, the percentages of apoptotic cells were determined by a flow cytometry. Data were analyzed by FlowJo software (Version 10, FlowJo, LLC, Ashland, OR, USA).

[8] = Aqueous solubility determination by HPLC; format: physicochemical; conditions: pure water, thermodynamic from solid; neutral water, room temperature, HPLC
Protocol: Briefly, each tested compound (10 mg) was dissolved in 10 mL of CH3OH, and the standard solution (0.5 mL) was used to determine the wavelength of maximum absorbance by HPLC. The solution was diluted as necessary, and the solubility was determined by linear regression with R^2 > 0.999. Each tested compound (5 mg) was ultrasound dissolved in 3 mL of pure water for 1 h at room temperature, and the mixture was then […] at 3000 rpm for 15 min. The saturated supernatants were determined by HPLC at the wavelength of the maximum absorption, and the absorbances were obtained. The solubility was calculated according to the standard curve.

COc1cc(NC(=O)CN)c2cc1Oc1ccc(cc1)C[C@H]1c3cc(c(OC)cc3CCN1C)Oc1c(OC)c(OC)cc3c1[C@H](C2)N(C)CC3 [Compound 12, 14-N-(L-glycine)-tetrandrine]
IC50 [1]: 3.54 ± 0.36 µM
IC50 [2]: 4.94 ± 0.45 µM
IC50 [3]: 6.91 ± 0.66 µM
IC50 [4]: 3.98 ± 0.16 µM
IC50 [5]: 3.19 ± 0.61 µM
IC50 [6]: > 20 µM
IC50 [7]: 3.19 ± 0.76 µM

COc1cc(NC(=O)[C@H](C)N)c2cc1Oc1ccc(cc1)C[C@H]1c3cc(c(OC)cc3CCN1C)Oc1c(OC)c(OC)cc3c1[C@H](C2)N(C)CC3 [Compound 13]
IC50 [1]: 4.69 ± 0.47 µM
IC50 [2]: 8.12 ± 0.43 µM
IC50 [3]: 11.1 ± 0.26 µM
IC50 [4]: 6.95 ± 0.57 µM
IC50 [5]: 2.2 ± 0.37 µM
IC50 [6]: > 20 µM
IC50 [7]: 3.27 ± 1 µM

COc1cc(NC(=O)[C@@H](N)C(C)C)c2cc1Oc1ccc(cc1)C[C@H]1c3cc(c(OC)cc3CCN1C)Oc1c(OC)c(OC)cc3c1[C@H](C2)N(C)CC3 [Compound 14, 14-N-(L-valine)-tetrandrine]
IC50 [1]: 4.02 ± 0.15 µM
IC50 [2]: 6.11 ± 0.91 µM
IC50 [3]: 7.96 ± 1.08 µM
IC50 [4]: 4.95 ± 0.29 µM
IC50 [5]: 2.48 ± 0.15 µM
IC50 [6]: 14.5 ± 0.37 µM
IC50 [7]: 3.26 ± 0.05 µM

COc1cc(NC(=O)[C@@H](N)CC(C)C)c2cc1Oc1ccc(cc1)C[C@H]1c3cc(c(OC)cc3CCN1C)Oc1c(OC)c(OC)cc3c1[C@H](C2)N(C)CC3 [Compound 15, 14-N-(L-leucine)-tetrandrine]
IC50 [1]: 2.71 ± 0.22 µM
IC50 [2]: 5.92 ± 0.73 µM
IC50 [3]: 6.74 ± 0.16 µM
IC50 [4]: 4.55 ± 0.27 µM
IC50 [5]: 3.09 ± 0.36 µM
IC50 [6]: 12.08 ± 0.04 µM
IC50 [7]: 3.66 ± 0.82 µM

COc1cc(NC(=O)[C@@H](N)CO)c2cc1Oc1ccc(cc1)C[C@H]1c3cc(c(OC)cc3CCN1C)Oc1c(OC)c(OC)cc3c1[C@H](C2)N(C)CC3 [Compound 17, 14-N-(L-serine)-tetrandrine]
IC50 [1]: 3.94 ± 0.37 µM
IC50 [2]: 7.44 ± 1.02 µM
IC50 [3]: 7.53 ± 0.11 µM
IC50 [4]: 3.67 ± 0.19 µM
IC50 [5]: 2.88 ± 0.26 µM
IC50 [6]: > 20 µM
IC50 [7]: 3.13 ± 0.7 µM

COc1cc(NC(=O)[C@@H](N)[C@@H](C)O)c2cc1Oc1ccc(cc1)C[C@H]1c3cc(c(OC)cc3CCN1C)Oc1c(OC)c(OC)cc3c1[C@H](C2)N(C)CC3 [Compound 18, 14-N-(L-threonine)-tetrandrine]
IC50 [1]: 5.28 ± 0.37 µM
IC50 [2]: 6.81 ± 1.1 µM
IC50 [3]: 10.2 ± 0.4 µM
IC50 [4]: 5.6 ± 0.38 µM
IC50 [5]: 3.25 ± 0.69 µM
IC50 [6]: > 20 µM
IC50 [7]: 3.57 ± 0.67 µM

COc1cc(NC(=O)[C@H](N)Cc2ccccc2)c2cc1Oc1ccc(cc1)C[C@H]1c3cc(c(OC)cc3CCN1C)Oc1c(OC)c(OC)cc3c1[C@H](C2)N(C)CC3 [Compound 19]
IC50 [1]: 3.39 ± 0.07 µM
IC50 [2]: 2.67 ± 0.14 µM
IC50 [3]: 3.31 ± 0.01 µM
IC50 [4]: 1.75 ± 0.13 µM
IC50 [5]: 1.92 ± 0.17 µM
IC50 [6]: 9.02 ± 0.26 µM
IC50 [7]: 1.71 ± 0.46 µM

COc1cc(NC(=O)[C@@H](N)Cc2ccc(O)cc2)c2cc1Oc1ccc(cc1)C[C@H]1c3cc(c(OC)cc3CCN1C)Oc1c(OC)c(OC)cc3c1[C@H](C2)N(C)CC3 [Compound 20, 14-N-(L-tyrosine)-tetrandrine]
IC50 [1]: 3.33 ± 0.08 µM
IC50 [2]: 4.12 ± 0.27 µM
IC50 [3]: 3.7 ± 0.91 µM
IC50 [4]: 2.36 ± 0.15 µM
IC50 [5]: 1.91 ± 0.09 µM
IC50 [6]: 10 ± 1.28 µM
IC50 [7]: 1.44 ± 0.18 µM

COc1ccc2cc1Oc1ccc(cc1)C[C@H]1c3cc(c(OC)cc3CCN1C)Oc1c(OC)c(OC)cc3c1[C@H](C2)N(C)CC3 [TET, tetrandrine]
Percentage of apoptotic cells (HCT-15 cells): lower than 14%
IC50 [1]: 6.12 ± 0.51 µM
solubility at 1 h [8]: < 30 µg/mL
IC50 [2]: 6.39 ± 0.83 µM
IC50 [3]: 3.9 ± 0.47 µM
IC50 [4]: 7.6 ± 0.16 µM
IC50 [5]: 3.62 ± 0.02 µM
IC50 [6]: 16 ± 1.18 µM
IC50 [7]: 3.25 ± 0.11 µM
